Measured values from patent publication US20240140957A1, “BRIDGED COMPOUNDS AS KRAS G12D INHIBITOR AND DEGRADER AND THE USE THEREOF” (BeiGene Switzerland GmbH, priority 2021, published 2024).

molecular target: GDP-loaded KRAS G12D (Homo sapiens, UniProt P01116, G12D); assay: KRAS G12D Probe Displacement Assay; format: binding; conditions: KRAS G12D 0.5 nM, biotinylated probe 2 4 nM; Table 6 letters; read-out: KRAS G12D Probe Displacement Assay IC50 (class)
Sequence (P01116 1-188 isoform P01116-2 G12D): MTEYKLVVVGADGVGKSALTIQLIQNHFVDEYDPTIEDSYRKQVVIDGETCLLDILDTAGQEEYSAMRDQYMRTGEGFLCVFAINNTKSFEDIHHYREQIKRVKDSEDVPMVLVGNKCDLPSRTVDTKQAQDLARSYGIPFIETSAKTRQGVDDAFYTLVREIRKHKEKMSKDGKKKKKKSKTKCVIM

IC50, 100 to 1000 nM:
Cc1cc(N)nc(-c2c(Cl)cc3c(N4CC5CCC(C4)N5)nc(OCC4C5COCC54)nc3c2F)c1C(F)(F)F (stereo not drawn) [Example E231, 6-(2-((3-oxabicyclo[3.1.0]hexan-6-yl)methoxy)-4-(3,8-diazabicyclo[3.2.1]octan-3-yl)-6-chloro-8-fluoroquinazolin-7-yl)-4-methyl-5-(trifluoromethyl)pyridin-2-amine]

IC50, 50 to 100 nM:
Cc1cc(N)nc(-c2c(Cl)cc3c(N4CC5CCC(C4)N5)nc(OCC4(C)CCOCC4)nc3c2F)c1C(F)(F)F [Example E202, 6-(4-(3,8-diazabicyclo[3.2.1]octan-3-yl)-6-chloro-8-fluoro-2-((4-methyltetrahydro-2H-pyran-4-yl)methoxy)quinazolin-7-yl)-4-methyl-5-(trifluoromethyl)pyridin-2-amine]

IC50, < 50 nM:
N#Cc1c(N)sc2c(F)ccc(-c3c(C(F)(F)F)cc4c(N5CC6CCC(C5)N6)nc(OC[C@@]56CCCN5C[C@H](F)C6)nc4c3F)c12 [Example E104, 4-(4-(3,8-diazabicyclo[3.2.1]octan-3-yl)-8-fluoro-2-(((2R,7aS)-2-fluorotetrahydro-1H-pyrrolizin-7a(5H)-yl)methoxy)-6-(trifluoromethyl)quinazolin-7-yl)-2-amino-7-fluorobenzo[b]thiophene-3-carbonitrile]
Nc1nc2c(-c3c(C(F)(F)F)cc4c(N5CC6CCC(C5)N6)nc(OCCn5cccn5)nc4c3F)ccc(F)c2s1 [Example E185, 4-(2-(2-(1H-pyrazol-1-yl)ethoxy)-4-(3,8-diazabicyclo[3.2.1]octan-3-yl)-8-fluoro-6-(trifluoromethyl)quinazolin-7-yl)-7-fluorobenzo[d]thiazol-2-amine]
Cc1cc(N)nc(-c2c(C3CC3)cc3c(N4CC5CCC(C4)N5)nc(OC[C@@]45CCCN4C[C@H](F)C5)nc3c2F)c1C(F)(F)F [Example E129, 6-(4-(3,8-diazabicyclo[3.2.1]octan-3-yl)-6-cyclopropyl-8-fluoro-2-(((2R,7aS)-2-fluorotetrahydro-1H-pyrrolizin-7a(5H)-yl)methoxy)quinazolin-7-yl)-4-methyl-5-(trifluoromethyl)pyridin-2-amine]
Nc1cc(-c2cc3nc(OC[C@@]45CCCN4C[C@H](F)C5)nc(N4CC5CCC(C4)N5)c3cc2Cl)c(C(F)(F)F)c(C(F)(F)F)c1 [Example E237, 3-(4-(3,8-diazabicyclo[3.2.1]octan-3-yl)-6-chloro-2-(((2R,7aS)-2-fluorotetrahydro-1H-pyrrolizin-7a(5H)-yl)methoxy)quinazolin-7-yl)-4,5-bis (trifluoromethyl) aniline]
Nc1nc2c(-c3c(C(F)(F)F)cc4c(N5CC6CCC(C5)N6)nc(OCC(F)(F)CO)nc4c3F)ccc(F)c2s1 [Example E153, 3-((7-(2-amino-7-fluorobenzo[d]thiazol-4-yl)-4-(3,8-diazabicyclo [3.2.1]octan-3-yl)-8-fluoro-6-(trifluoromethyl)quinazolin-2-yl)oxy)-2,2-difluoropropan-1-ol]
CN1C[C@H](F)C[C@H]1COc1nc(N2CC3CCC(C2)N3)c2cc(C(F)(F)F)c(-c3ccc(F)c4sc(N)c(C#N)c34)c(F)c2n1 [Example E111, 4-(4-(3,8-diazabicyclo[3.2.1]octan-3-yl)-8-fluoro-2-(((2S,4R)-4-fluoro-1-methylpyrrolidin-2-yl)methoxy)-6-(trifluoromethyl)quinazolin-7-yl)-2-amino-7-fluoro benzo[b]thiophene-3-carbonitrile]
Cc1cc(N)nc(-c2cc3nc(OC[C@@]45CCCN4C[C@H](F)C5)nc(N4CC5CCC(C4)N5)c3cc2Cl)c1C(F)(F)F [Example E117, 6-(4-(3,8-diazabicyclo[3.2.1]octan-3-yl)-6-chloro-2-(((2R,7aS)-2-fluorotetrahydro-1H-pyrrolizin-7a(5H)-yl)methoxy)quinazolin-7-yl)-4-methyl-5-(trifluoromethyl)pyridin-2-amine]
CC(=O)N1CC(COc2nc(N3CC4CCC(C3)N4)c3cc(C(F)(F)F)c(-c4ccc(F)c5sc(N)nc45)c(F)c3n2)C1 [Example E164, 1-(3-(((7-(2-amino-7-fluorobenzo[d]thiazol-4-yl)-4-(3,8-diazabicyclo[3.2.1]octan-3-yl)-8-fluoro-6-(trifluoromethyl)quinazolin-2-yl)oxy)methyl)azetidin-1-yl)ethan-1-one]
COCCCNC1C[C@H]2CC[C@@H]1N2c1nc(OC[C@@]23CCCN2C[C@H](F)C3)nc2c(F)c(-c3ccc(F)c4sc(N)nc34)c(C(F)(F)F)cc12 (stereo partly drawn) [Example E97, 7-fluoro-4-(8-fluoro-2-(((2R,7aS)-2-fluorotetrahydro-1H-pyrrolizin-7a(5H)-yl)methoxy)-4-((1S,4R)-2-((3-methoxypropyl)amino)-7-azabicyclo [2.2.1]heptan-7-yl)-6-(trifluoromethyl)quinazolin-7-yl) benzo[d]thiazol-2-amine]
Nc1nc2c(-c3c(C(F)(F)F)cc4c(N5CC6CCC(C5)N6)nc(OCC56COCC5C6)nc4c3F)ccc(F)c2s1 (stereo not drawn) [Example E217, 4-(2-((3-oxabicyclo[3.1.0]hexan-1-yl)methoxy)-4-(3,8-diazabicyclo[3.2.1]octan-3-yl)-8-fluoro-6-(trifluoromethyl)quinazolin-7-yl)-7-fluorobenzo[d]thiazol-2-amine]
Nc1nc2c(-c3c(C(F)(F)F)cc4c(N5CC6CCC(C5)N6)nc(OCC5(F)CCOCC5)nc4c3F)ccc(F)c2s1 [Example E218, 4-(4-(3,8-diazabicyclo[3.2.1]octan-3-yl)-8-fluoro-2-((4-fluorotetra hydro-2H-pyran-4-yl)methoxy)-6-(trifluoromethyl)quinazolin-7-yl)-7-fluorobenzo[d]thiazol-2-amine]
N#CC12CC(COc3nc(N4CC5CCC(C4)N5)c4cc(C(F)(F)F)c(-c5ccc(F)c6sc(N)nc56)c(F)c4n3)(C1)C2 [Example E186, 3-(((7-(2-amino-7-fluorobenzo[d]thiazol-4-yl)-4-(3,8-diazabicyclo [3.2.1]octan-3-yl)-8-fluoro-6-(trifluoromethyl)quinazolin-2-yl)oxy)methyl)bicyclo[1.1.1] pentane-1-carbonitrile]
Nc1nc2c(-c3c(C(F)(F)F)cc4c(N5CC6CCC(C5)N6)nc(OCCCC5COC5)nc4c3F)ccc(F)c2s1 [Example E161]
N#CC1(F)CC(Oc2nc(N3CC4CCC(C3)N4)c3cc(C(F)(F)F)c(-c4ccc(F)c5sc(N)nc45)c(F)c3n2)C1 (stereo not drawn) [Example E151, 3-((7-(2-amino-7-fluorobenzo[d]thiazol-4-yl)-4-(3,8-diazabicyclo[3.2.1]octan-3-yl)-8-fluoro-6-(trifluoromethyl)quinazolin-2-yl)oxy)-1-fluorocyclo butane-1-carbonitrile]
COC1(COc2nc(N3CC4CCC(C3)N4)c3cc(C(F)(F)F)c(-c4ccc(F)c5sc(N)nc45)c(F)c3n2)CC1 [Example E156]
COCC(C#N)(CO)COc1nc(N2CC3CCC(C2)N3)c2cc(Cl)c(-c3nc(N)cc(C)c3C(F)(F)F)c(F)c2n1 (stereo not drawn) [Example E204, 3-((7-(6-amino-4-methyl-3-(trifluoromethyl)pyridin-2-yl)-4-(3,8-diazabicyclo [3.2.1]octan-3-yl)-6-chloro-8-fluoroquinazolin-2-yl)oxy)-2-(hydroxymethyl)-2-(methoxymethyl)propanenitrile]
N#Cc1cncc(CCOc2nc(N3CC4CCC(C3)N4)c3cc(C(F)(F)F)c(-c4ccc(F)c5sc(N)nc45)c(F)c3n2)c1 [Example E188, 5-(2-((7-(2-amino-7-fluorobenzo[d]thiazol-4-yl)-4-(3,8-diazabicyclo[3.2.1]octan-3-yl)-8-fluoro-6-(trifluoromethyl)quinazolin-2-yl)oxy)ethyl) nicotinonitrile]
Cc1cc(O)cc(-c2c(Cl)cc3c(N4CC5CCC(C4)N5)nc(OC[C@@]45CCCN4C[C@H](F)C5)nc3c2F)c1C(F)(F)F [Example E114, 3-(4-(3,8-diazabicyclo[3.2.1]octan-3-yl)-6-chloro-8-fluoro-2-(((2R,7aS)-2-fluorotetrahydro-1H-pyrrolizin-7a(5H)-yl)methoxy)quinazolin-7-yl)-5-methyl-4-(trifluoromethyl)phenol]
Nc1nc2c(-c3c(C(F)(F)F)cc4c(N5CC6CCC(C5)N6)nc(OCC5(CO)CCOCC5)nc4c3F)ccc(F)c2s1 [Example E187, (4-(((7-(2-amino-7-fluorobenzo[d]thiazol-4-yl)-4-(3,8-diazabicyclo[3.2.1]octan-3-yl)-8-fluoro-6-(trifluoromethyl)quinazolin-2-yl)oxy)methyl)tetrahydro-2H-pyran-4-yl)methanol]
N#CC1(COc2nc(N3CC4CCC(C3)N4)c3cc(C(F)(F)F)c(-c4ccc(F)c5sc(N)nc45)c(F)c3n2)CCOC1 (stereo not drawn) [Example E211, 3-(((7-(2-amino-7-fluorobenzo[d]thiazol-4-yl)-4-(3,8-diazabicyclo [3.2.1]octan-3-yl)-8-fluoro-6-(trifluoromethyl)quinazolin-2-yl)oxy)methyl)tetrahydrofuran-3-carbonitrile]
CC12CC(COc3nc(N4CC5CCC(C4)N5)c4cc(C(F)(F)F)c(-c5ccc(F)c6sc(N)c(C#N)c56)c(F)c4n3)(CO1)C2 [Example E235, 4-(4-(3,8-diazabicyclo[3.2.1]octan-3-yl)-8-fluoro-2-((1-methyl-2-oxabicyclo[2.1.1]hexan-4-yl)methoxy)-6-(trifluoromethyl)quinazolin-7-yl)-2-amino-7-fluoro benzo[b]thiophene-3-carbonitrile]
Cc1cc(N)nc(-c2c(Cl)cc3c(N4CC5CCC(C4)N5)nc(OCC(C#N)(CO)CO)nc3c2F)c1C(F)(F)F [Example E205, 3-((7-(6-amino-4-methyl-3-(trifluoromethyl)pyridin-2-yl)-4-(3,8-diazabicyclo [3.2.1]octan-3-yl)-6-chloro-8-fluoroquinazolin-2-yl)oxy)-2,2-bis(hydroxymethyl) propanenitrile]
